Laboratory results published in the NIST ThermoML archive (doi:10.1021/acs.jced.7b00106).

Details: Liquid, Hot wire method

FC(F)(F)/C=C/Cl [(E)-1-chloro-3,3,3-trifluoroprop-1-ene]
Details | thermal conductivity [W/m/K]
242.05 K, 36072 kPa | 0.1119
242.06 K, 13440 kPa | 0.1056
242.08 K, 7089 kPa | 0.1037
242.09 K, 28062 kPa | 0.1106
242.11 K, 583 kPa | 0.101
242.13 K, 20421 kPa | 0.1074
242.18 K, 13439 kPa | 0.105
242.22 K, 7107 kPa | 0.1031
242.24 K, 585 kPa | 0.1007
242.32 K, 63843 kPa | 0.1195
242.33 K, 53263 kPa | 0.1172
242.34 K, 36064 kPa | 0.112
242.34 K, 43841 kPa | 0.1149
242.41 K, 28063 kPa | 0.1093
242.45 K, 20418 kPa | 0.1078
242.46 K, 53261 kPa | 0.1167
242.46 K, 63839 kPa | 0.1194
242.47 K, 43873 kPa | 0.1147
242.49 K, 36067 kPa | 0.1119
242.5 K, 13437 kPa | 0.1053
242.54 K, 7100 kPa | 0.1033
242.55 K, 28067 kPa | 0.11
242.56 K, 597 kPa | 0.101
242.59 K, 20435 kPa | 0.1072
242.65 K, 13436 kPa | 0.105
242.69 K, 7107 kPa | 0.1029
242.76 K, 53251 kPa | 0.1166
242.76 K, 63833 kPa | 0.1199
242.79 K, 43839 kPa | 0.115
242.81 K, 36066 kPa | 0.1121
242.88 K, 28066 kPa | 0.1102
242.91 K, 63824 kPa | 0.1193
242.93 K, 20434 kPa | 0.1075
242.93 K, 53255 kPa | 0.1164
242.96 K, 43854 kPa | 0.1143
242.98 K, 36047 kPa | 0.1118
242.99 K, 13448 kPa | 0.1056
243.04 K, 7102 kPa | 0.1029
243.05 K, 28059 kPa | 0.1096
243.08 K, 588 kPa | 0.101
243.11 K, 20431 kPa | 0.1071
243.18 K, 13440 kPa | 0.105
243.22 K, 7112 kPa | 0.1026
243.23 K, 63821 kPa | 0.1197
243.26 K, 584 kPa | 0.1004
243.26 K, 53253 kPa | 0.1164
243.29 K, 43835 kPa | 0.1146
243.3 K, 36069 kPa | 0.1121
243.4 K, 28075 kPa | 0.1098
243.42 K, 63814 kPa | 0.1191
243.44 K, 53247 kPa | 0.1163
243.46 K, 20431 kPa | 0.1074
243.49 K, 43850 kPa | 0.114
243.51 K, 36041 kPa | 0.1117
243.53 K, 13443 kPa | 0.1053
243.58 K, 7097 kPa | 0.103
243.6 K, 28066 kPa | 0.1094
243.63 K, 586 kPa | 0.1005
243.66 K, 20425 kPa | 0.107
243.74 K, 63809 kPa | 0.1193
243.78 K, 53242 kPa | 0.1168
243.8 K, 7115 kPa | 0.1027
243.83 K, 43827 kPa | 0.1143
243.85 K, 580 kPa | 0.1001
243.85 K, 36062 kPa | 0.1118
243.96 K, 28066 kPa | 0.1097
243.96 K, 63804 kPa | 0.119
244 K, 53243 kPa | 0.1163
244.02 K, 20445 kPa | 0.1073
244.06 K, 43851 kPa | 0.1139
244.09 K, 36043 kPa | 0.1116
244.19 K, 28067 kPa | 0.1093
244.27 K, 20428 kPa | 0.1068
261.5 K, 276 kPa | 0.09433
261.52 K, 5038 kPa | 0.09629
261.54 K, 10280 kPa | 0.09846
261.55 K, 22296 kPa | 0.1036
261.56 K, 15956 kPa | 0.1002
261.58 K, 270 kPa | 0.09415
261.61 K, 5056 kPa | 0.09622
261.63 K, 10283 kPa | 0.09831
261.64 K, 22292 kPa | 0.1023
261.65 K, 15950 kPa | 0.1003
261.91 K, 36411 kPa | 0.1079
261.91 K, 42842 kPa | 0.1093
261.93 K, 282 kPa | 0.09438
261.93 K, 5041 kPa | 0.09641
261.94 K, 29216 kPa | 0.1051
261.95 K, 22290 kPa | 0.103
261.96 K, 10273 kPa | 0.09851
261.96 K, 15950 kPa | 0.1005
261.97 K, 65297 kPa | 0.1155
262 K, 59186 kPa | 0.115
262.01 K, 36414 kPa | 0.1074
262.01 K, 42847 kPa | 0.1089
262.02 K, 51140 kPa | 0.1116
262.04 K, 270 kPa | 0.094
262.05 K, 29220 kPa | 0.105
262.06 K, 5047 kPa | 0.09593
262.06 K, 10278 kPa | 0.09816
262.06 K, 22290 kPa | 0.1024
262.06 K, 65280 kPa | 0.115
262.08 K, 15930 kPa | 0.1003
262.1 K, 59178 kPa | 0.1128
262.12 K, 51139 kPa | 0.1114
262.33 K, 36413 kPa | 0.1071
262.33 K, 42846 kPa | 0.1091
262.37 K, 65275 kPa | 0.1153
262.38 K, 29224 kPa | 0.1054
262.4 K, 275 kPa | 0.09425
262.4 K, 22288 kPa | 0.1026
262.41 K, 59182 kPa | 0.1141
262.42 K, 5040 kPa | 0.09609
262.42 K, 10267 kPa | 0.09829
262.43 K, 51128 kPa | 0.1115
262.44 K, 15943 kPa | 0.1005
262.46 K, 42848 kPa | 0.1091
262.47 K, 36410 kPa | 0.107
262.5 K, 65252 kPa | 0.115
262.51 K, 29222 kPa | 0.1049
262.53 K, 59166 kPa | 0.1136
262.55 K, 22288 kPa | 0.1025
262.56 K, 273 kPa | 0.09391
262.56 K, 51133 kPa | 0.1113
262.57 K, 5039 kPa | 0.09583
262.57 K, 10288 kPa | 0.09813
262.57 K, 15931 kPa | 0.09995
262.8 K, 42854 kPa | 0.1091
262.81 K, 36411 kPa | 0.107
262.81 K, 65229 kPa | 0.1152
262.86 K, 29224 kPa | 0.105
262.86 K, 59156 kPa | 0.1141
262.89 K, 51121 kPa | 0.1116
262.9 K, 22284 kPa | 0.1027
262.94 K, 280 kPa | 0.094
262.94 K, 10264 kPa | 0.09833
262.94 K, 15933 kPa | 0.1003
262.95 K, 5058 kPa | 0.09606
262.95 K, 42854 kPa | 0.1089
262.96 K, 65209 kPa | 0.115
262.98 K, 36413 kPa | 0.1068
263.01 K, 59151 kPa | 0.1135
263.03 K, 29224 kPa | 0.1045
263.05 K, 51114 kPa | 0.1112
263.06 K, 22282 kPa | 0.1023
